Test results: patent US20240425529A1, “BORIC ACID DERIVATIVE” (SHOUYAO HOLDINGS (BEIJING) CO., LTD., priority 2021, published 2024)

How the values were obtained:
[1] = biological target: T1, LMP7 (Homo sapiens, UniProt P28062); experiment: Cytological inhibitory activity on LMP7 in MOLT-4 cells; assay type: cell-based; conditions: incubation for 2 hours with compound, read-out: Cytological activity data LMP7 Activity (MOLT-4Cell)
T1 construct: using MOLT-4 cell lysate as the enzyme source of LMP7; endogenous in cells; host or cells: MOLT-4 (human acute lymphoblastic leukemia cells)
Experimental: MOLT-4 are human acute lymphoblastic leukemia cells and have been identified as cells with high expression of LMP7. In this experiment, the compounds were pre-incubated with MOLT-4, and Ac-ANW-AMC (BonstonBiochem, Cat #S-320) was used as the substrate of LMP7 to establish the detection method for the enzymatic activity of LMP7 in cells and detect the compound inhibitory activity (half inhibitory concentration, IC50).
Cells were plated in a 24-well plate (Corning) at a concentration of 1.5×10^5/ml per well. The next day compounds were prepared and diluted in a 5-fold gradient from 2 mM in 100% DMSO for a total of 8 concentrations. 2 μl for each concentration of the compound was added to a 1-ml cell culture medium, supplemented with 1 ml of RPMI-1640 only (final FBS concentration 5%, v/v). The compounds were mixed with the cells. After incubation for 2 hours in the incubator, the cells were centrifuged at 2000 rpm for 8 minutes to discard the supernatant. The cells were washed once with 2 ml PBS (Solarbio), and centrifuged again to discard the supernatant. The cells were resuspended in 100 μl of lysis buffer (20 mM Tris, pH 8.0, 5 mM EDTA, plus Protease inhibitor (1: 100) and Phosphatase Inhibitor (1:100) when used) and left in a 4° C. refrigerator for 45 minutes.
After 2 min. of centrifuge at 2000 rpm, the lysate was transferred from the 24-well plate to a 96-well plate, and centrifuged at 2000 rpm, 4° C., for 15 min. The supernatant was the lysate. Protein quantification was performed using the BCA method (Thermo, #23225). A 2* lysate was prepared with the reaction buffer (20 mM Tris, pH 8.0, 0.5 mM EDTA) at a final concentration of 20 ng/μl. 2* Ac-ANW-AMC was prepared with the reaction buffer at a final concentration of 100 μM. 10 µl of 2* lysate was added to a 384-well plate (OptiPlate-384, purchased from PerkinElmer), and added with 10 W of 2* Ac-ANW-AMC. The reaction was started by centrifugation at 23° C. in the dark for 1 hour. After completion of the reaction, the signal value (excitation wavelength 345 nm/emission wavelength 445 nm) was read on the CLARIO starPlus (purchased from BMG LRBTECH). Enzyme activity was determined at 8 concentrations for each compound, and data were processed using the GraphPad Prism software to calculate the half inhibitory concentration of the compound on LMP7 hydrolase in MOLT-4 cells, i.e. the IC50 value.

[2] = biological target: T2, β5 (Homo sapiens, UniProt P28074); experiment: Enzymatic inhibitory activity on β5 (HEK-293 cell lysate, Ac-WLA-AMC substrate); assay type: biochemical; conditions: 1 hour pre-incubation
T2 construct: using HEK-293 cell lysate as the enzyme source of D5; endogenous in cells; host or cells: HEK-293 (human embryonic kidney cells)
From the text: β5 is a catalytic subunit of immunoproteasomes. In this experiment, an enzymatic detection platform was established using its hydrolytic enzyme activity and used for compound activity detection. Using Ac-WLA-AMC (Bonston Biochem, Cat #5-330) as a substrate for D5, the amount of fluorescent group AMC (7-amino-4-methylcoumarin) released after hydrolysis can reflect the enzymatic activity. […] We established an enzymatic detection method for compound inhibition on D5 using HEK-293 cell lysate as the enzyme source of D5 and detected the compound inhibitory activity (half inhibitory concentration, IC50). The enzymatic inhibitory activity of compounds against D5 was used as a measure index of compound selectivity.
(§1) HEK-293 cells were cultured in a 75 cm^2 cell culture flask (Corning) (37° C., 95% air, and 5% CO2) with DMEM (Biological Industries) medium containing 10% fetal bovine serum (Biological Industries) and 1% Pen Strep (Gibco) and passaged 2-3 times one week. 1×10^7 HEK-293 cells were collected, resuspended in 1 ml of PBS (Solarbio), and centrifuged at 3000 rpm for 5 minutes. The supernatant was aspirated off. The cells were resuspended in 500 μl of lysis buffer (20 mM Tris, pH 8.0, 5 mM EDTA, plus Protease inhibitor (1:1000) and Phosphatase Inhibitor (1:100) when used) and left on ice for 30 minutes. The cells were broken by supersonic technique, 0.5 S on, 0.5 S off, for 2.5 S. The centrifuge was performed at 12000 rpm, 4° C. for 10 minutes. The supernatant was the cell lysate and protein quantification was performed using the BCA method (Thermo, #23225).
Compounds were diluted in a 5-fold gradient with 100% DMSO for a total of 9 concentrations. 2 W for each concentration was added to a 48-μl reaction buffer (20 mM Tris, pH 8.0, 0.5 mM EDTA) and mixed well as 4* compound (final concentrations: 100000, 20000, 4000, 800, 160, 32, 6.4, 1.28, and 0 nM) for later use. A reaction buffer was used to prepare 4*HEK-293 cell lysate at a final concentration of 25 ng/μl and 2*Ac-WLA-AMC at a final concentration of 20 μM. 5 W of 4* compound was added to a 384-well plate (OptiPlate-384, purchased from PerkinElmer), added with 5 W of 4*HEK-293 cell lysate, centrifuged, and reacted in an incubator at 23° C. for 1 hour. 10 W of 2* Ac-WLA-AMC was added and the reaction was started by centrifugation at 23° C. in the dark for 2 hours. After completion of the reaction, the signal value (excitation wavelength 345 nm/emission wavelength 445 nm) was read on the CLARIO star^Plus (purchased from BMG LRBTECH). Enzyme activity was determined at 9 concentrations for each compound, and data were processed using the GraphPad Prism software to calculate the half inhibitory concentration of the compound on D5, i.e. the IC50 value.

[3] = biological target: T1, LMP7; experiment: Enzymatic inhibitory activity on LMP7 (MOLT-4 cell lysate, Ac-ANW-AMC substrate); assay type: biochemical; conditions: 1 hour pre-incubation
From the text: LMP7 is a catalytic subunit of immunoproteasomes. In this experiment, an enzymatic detection platform was established using its hydrolytic enzyme activity and used for compound activity detection. Using Ac-ANW-AMC (Bonston Biochem, Cat #S-320) as a substrate for LMP7, the amount of fluorescent group AMC (7-amino-4-methylcoumarin) released after hydrolysis can reflect the enzymatic activity. MOLT-4 cells are human acute lymphoblastic leukemia cells and have been identified as cells with high expression of LMP7. We established an enzymatic detection method for compound inhibition on LMP7 using MOLT-4 cell lysate as the enzyme source of LMP7 and detected the compound inhibitory activity (half inhibitory concentration, IC50).
as §1, with “MOLT-4 cells were” for “HEK-293 cells were”, “CO2) with RPMI-1640 (Biological Industries)” for “CO2) with DMEM (Biological Industries)”, “week. 1×10^7 MOLT-4 cells were” for “week. 1×10^7 HEK-293 cells were”, “was performed by using the” for “was performed using the”
Compounds were diluted in a 5-fold gradient with 100% DMSO for a total of 9 concentrations: 2 W for each concentration was added to a 48-μl reaction buffer (20 mM Tris, pH 8.0, 0.5 mM EDTA) and mixed well as 4* compound (final concentrations: 2000, 400, 80, 16, 3.2, 0.64, 0.128, 0.0256, and 0 nM) for later use. A reaction buffer was used to prepare 4* MOLT-4 cell lysate at a final concentration of 20 ng/μl and 2*Ac-ANW-AMC at a final concentration of 100 µM. 5 μl of 4* compound was added to a 384-well plate (OptiPlate-384, purchased from PerkinElmer), added with 5 W of 4* cell lysate, centrifuged, and reacted in an incubator at 23° C. for 1 hour. 10 W of 2* Ac-ANW-AMC was added and the reaction was started by centrifugation at 23° C. in the dark for 2 hours. After completion of the reaction, the signal value (excitation wavelength 345 nm/emission wavelength 445 nm) was read on the CLARIO star^Plus (purchased from BMG LRBTECH). Enzyme activity was determined at 9 concentrations for each compound, and data were processed using the GraphPad Prism software to calculate the half inhibitory concentration of the compound on LMP7, i.e. the IC50 value.

IC50 [1] | IC50 [2] | IC50 [3] | SMILES
13.6 nM | 38.4 nM | 1.99 nM | CC1(C)[C@@H]2C[C@H]3OB([C@H](Cc4coc5ccccc45)NC(=O)C(=O)Nc4ncc(Cl)s4)O[C@@]3(C)[C@H]1C2 [Ex. 35, (R)-(2-(benzofuran-3-yl)-1-(2-oxo-2-((5-chlorothiazol-2-yl)amino)acetamido)ethyl)boronic acid (1S,2S,3R,5S)-(+)-pinane-2,3-diol ester]
19.5 nM | 54.5 nM | 3.14 nM | O=C(Nc1ncc(Cl)s1)C(=O)N[C@@H](Cc1coc2ccccc12)B(O)O [Ex. 36, (R)-(2-(benzofuran-3-yl)-1-(2-oxo-2-((5-chlorothiazol-2-yl)amino)acetamido)ethyl)boronic acid]
111 nM | 264 nM | 5.93 nM | Cn1ccnc1NC(=O)C(=O)N[C@@H](Cc1coc2ccccc12)B(O)O [Ex. 37, (R)-(2-(benzofuran-3-yl)-1-(2-oxo-2-((1-methyl-1H-imidazol-2-yl)amino)acetamido)ethyl)boronic acid]
3.51 nM | 392 nM | 5.95 nM | O=C(N[C@@H](Cc1coc2ccccc12)B(O)O)C(=O)N1C2CCC1COC2 [Ex. 39, (R)-(2-(benzofuran-3-yl)-1-(2-oxo-2-(3-oxa-8-azabicyclo[3.2.1]octan-8-yl)acetamido)ethyl)boronic acid]
15.9 nM | 54.2 nM | 4.91 nM | O=C(N[C@@H]1CCOC1)C(=O)N[C@@H](Cc1coc2ccccc12)B(O)O [Ex. 44, ((R)-2-(benzofuran-3-yl)-1-(2-oxo-2(((R)-tetrahydrofuran-3-yl)amino)acetamido)ethyl) boronic acid]
22.7 nM | 97.7 nM | 5.32 nM | COc1ncccc1NC(=O)C(=O)N[C@@H](Cc1coc2ccccc12)B(O)O [Ex. 45, (R)-(2-(benzofuran-3-yl)-1-(2-oxo-2-((2-methoxypyridin-3-yl)amino)acetamido)ethyl)boronic acid]
2.29 nM | 93.8 nM | 7.83 nM | Cc1cnc(NC(=O)C(=O)N[C@@H](Cc2coc3ccccc23)B(O)O)cn1 [Ex. 46, (R)-(2-(benzofuran-3-yl)-1-(2-oxo-2-((5-methylpyrazin-2-yl)amino)acetamido)ethyl)boronic acid]
2.32 nM | 43.5 nM | 3.1 nM | O=C(Nc1cnc2ccccc2n1)C(=O)N[C@@H](Cc1coc2ccccc12)B(O)O [Ex. 47, (R)-(2-(benzofuran-3-yl)-1-(2-oxo-2-(quinoxalin-2-ylamino)acetamido)ethyl) boronic acid]
11.1 nM | 22.5 nM | 4.58 nM | O=C(Nc1cncnc1)C(=O)N[C@@H](Cc1coc2ccccc12)B(O)O [Ex. 48, (R)-(2-(benzofuran-3-yl)-1-(2-oxo-2-(pyrimidin-5-ylamino)acetamido)ethyl) boronic acid]
7.91 nM | 357 nM | 5.96 nM | CN(C)c1ccnc(NC(=O)C(=O)N[C@@H](Cc2coc3ccccc23)B(O)O)c1 [Ex. 50, (R)-(2-(benzofuran-3-yl)-1-(2-oxo-2-((4-dimethylaminopyridin-2-yl)amino)acetamido)ethyl)boronic acid]
3.88 nM | 74.6 nM | 3.08 nM | CC1(C)[C@@H]2C[C@H]3OB([C@H](Cc4coc5ccccc45)NC(=O)C(=O)N[C@@H]4C[C@H]5CC[C@@H]4O5)O[C@@]3(C)[C@H]1C2 [Ex. 51, ((R)-1-(2-(((1S,2R,4R)-7-oxabicyclo[2.2.1]heptan-2-yl)amino)-2-oxoacetamido)-2-(benzofuran-3-yl)ethyl)boronic acid (1S,2S,3R,5S)-(+)-pinane-2,3-diol ester]
4.94 nM | 32.4 nM | 1.61 nM | CC1(C)[C@@H]2C[C@H]3OB([C@H](Cc4coc5ccccc45)NC(=O)C(=O)Nc4ccccc4F)O[C@@]3(C)[C@H]1C2 [Ex. 52, (R)-(2-(benzofuran-3-yl)-1-(2-oxo-2-(2-fluorophenylamino)acetamido)ethyl) boronic acid (1S,2S,3R,5S)-(+)-pinane-2,3-diol ester]
